Measured values published in patent US20140212495A1, “NANOPARTICULATE COMPOSITIONS OF TUBULIN INHIBITOR COMPOUNDS” (Ziopharm Oncology, Inc., priority 2004, published 2014).
Like-named read-outs stand apart in the source and are kept apart here.

Columns and labels:
tubulin = details: cited from earlier work
[1] = cited from earlier work
[2] = test system: cell cycle progression at metaphase; details: cited from earlier work
[3] = test system: a variety of malignancies (e.g., prostate, brain, breast, pancreas, and colon); details: cited from earlier work
[4] = 4-week subchronic toxicity study in dogs, D-24851 plasma pharmacokinetics; assay type: in vivo; details: for AUC / Cmax / Tmax / half-life / AUC(0-t): dog, plasma, iv; for AUC(0-t): read-out: AUC0-tlast,md
Experimental: Blood samples from all animals were taken at the following times: 1 h, 2 h, 4 h, 8 h, 16 h, 24 h, 36 h and 48 hours after application. The concentration levels of D-24851 were measured using HPLC.

## O=C(Nc1ccncc1)C(=O)c1cn(Cc2ccc(Cl)cc2)c2ccccc12 [Composition D-24851, N-(Pyridin-4-yl)-[1-(4-chlorobenzyl)-indol-3-yl]glyoxylic acid amide]
tubulin
  overlap of binding site with tubulin-binding sites of vincristine or colchicine: does not appear to overlap
tubulin; in tumor cells, as well as in a cell-free system
  effect on microtubules: destabilizes microtubules
[1]; animal experiments
  neurological symptoms: No neurological symptoms
[1]; animals
  in-vivo antineoplastic efficacy: high in-vivo antineoplastic efficacy
[1]; preclinical experiments in rodents
  tolerability: very well tolerated at highly effective doses
[2]
  effect on cell cycle progression: selectively blocks cell cycle progression at metaphase
[3]
  antitumor activity in vitro: significant antitumor activity
[4]; Composition 4 i.v. 2.61, 5.62 and 12.1 mg/kg
  dose dependence of plasma concentrations: depend from the dose
[4]; Composition 4 i.v., 4 weeks
  plasma profiles day 1 versus day 27: of similar magnitude at day 1 and day 27 dosings
[4]; Day 1, Composition 4 i.v. 5.62 mg/kg, Males, Meanar n=3
  CL/f: 38.1 mL/min/kg
[4]; Day 1, Composition 4 i.v. 12.1 mg/kg, Females, Meanar n=3
  CL/f: 31.1 mL/min/kg
[4]; Day 1, Composition 4 i.v. 12.1 mg/kg, Males, Meanar n=3
  CL/f: 29.5 mL/min/kg
[4]; Day 27, Composition 4 i.v. 5.62 mg/kg, Males, Meanar n=3
  CL/f: 38.1 mL/min/kg
[4]; Day 27, Composition 4 i.v. 12.1 mg/kg, Females, Meanar n=3
  CL/f: 31.1 mL/min/kg
[4]; Day 27, Composition 4 i.v. 12.1 mg/kg, Males, Meanar n=3
  CL/f: 29.5 mL/min/kg
[4]; female, 2.61 mg/kg, Day 1, Composition 4 i.v. 2.61 mg/kg, Females, Meanar n=3, read-out: AUCτ, sd
  AUC: 3400 ng·h/mL
[4]; female, 2.61 mg/kg, Day 1, Composition 4 i.v. 2.61 mg/kg, Females, Meanar n=3, read-out: Cmax, sd
  Cmax: 210 ng/mL
[4]; female, 2.61 mg/kg, Day 1, Composition 4 i.v. 2.61 mg/kg, Females, Meanar n=3, read-out: tmax, sd
  Tmax: 1.67 h
[4]; female, 2.61 mg/kg, Day 1, Composition 4 i.v. 2.61 mg/kg, Females, only for orientating, unsufficient curve fitting
  half-life: 41 h
[4]; female, 2.61 mg/kg, Day 27, Composition 4 i.v. 2.61 mg/kg, Females, Meanar n=3, read-out: AUCτ, md
  AUC: 1410 ng·h/mL
[4]; female, 2.61 mg/kg, Day 27, Composition 4 i.v. 2.61 mg/kg, Females, Meanar n=3, read-out: Cmax, md
  Cmax: 148 ng/mL
[4]; female, 2.61 mg/kg, Day 27, Composition 4 i.v. 2.61 mg/kg, Females, Meanar n=3, read-out: tmax, md
  Tmax: 2.33 h
[4]; female, 2.61 mg/kg, Day 27, Composition 4 i.v. 2.61 mg/kg, Females, only for orientating, insufficient curve fitting
  half-life: 28.3 h
[4]; female, 2.61 mg/kg
  AUC(0-t): 1100 ng·h/mL
[4]; female, 5.62 mg/kg, Day 1, Composition 4 i.v. 5.62 mg/kg, Females, Meanar n=3, read-out: AUCτ, sd
  AUC: 3540 ng·h/mL
[4]; female, 5.62 mg/kg, Day 1, Composition 4 i.v. 5.62 mg/kg, Females, Meanar n=3, read-out: Cmax, sd
  Cmax: 279 ng/mL
[4]; female, 5.62 mg/kg, Day 1, Composition 4 i.v. 5.62 mg/kg, Females, only for orientating, unsufficient curve fitting
  half-life: 20 h
[4]; female, 5.62 mg/kg, Day 27, Composition 4 i.v. 5.62 mg/kg, Females, Meanar n=3
  half-life: 14.8 h
[4]; female, 5.62 mg/kg, Day 27, Composition 4 i.v. 5.62 mg/kg, Females, Meanar n=3, read-out: AUCτ, md
  AUC: 2960 ng·h/mL
[4]; female, 5.62 mg/kg, Day 27, Composition 4 i.v. 5.62 mg/kg, Females, Meanar n=3, read-out: Cmax, md
  Cmax: 315 ng/mL
[4]; female, 5.62 mg/kg, Day 27, Composition 4 i.v. 5.62 mg/kg, Females, Meanar n=3, read-out: tmax, md
  Tmax: 2.33 h
[4]; female, 5.62 mg/kg
  AUC(0-t): 2740 ng·h/mL
[4]; female, 5.62 mg/kg, read-out: tmax, sd
  Tmax: 2 h
[4]; female, 12.1 mg/kg, Day 1, Composition 4 i.v. 12.1 mg/kg, Females, Meanar n=3
  half-life: 11.6 h
[4]; female, 12.1 mg/kg, Day 1, Composition 4 i.v. 12.1 mg/kg, Females, Meanar n=3, read-out: AUCsd
  AUC: 8250 ng·h/mL
[4]; female, 12.1 mg/kg, Day 1, Composition 4 i.v. 12.1 mg/kg, Females, Meanar n=3, read-out: AUCτ, sd
  AUC: 7670 ng·h/mL
[4]; female, 12.1 mg/kg, Day 1, Composition 4 i.v. 12.1 mg/kg, Females, Meanar n=3, read-out: Cmax, sd
  Cmax: 860 ng/mL
[4]; female, 12.1 mg/kg, Day 1, Composition 4 i.v. 12.1 mg/kg, Females, Meanar n=3, read-out: tmax, sd
  Tmax: 2.33 h
[4]; female, 12.1 mg/kg, Day 27, Composition 4 i.v. 12.1 mg/kg, Females, Meanar n=3
  half-life: 24.2 h
[4]; female, 12.1 mg/kg, Day 27, Composition 4 i.v. 12.1 mg/kg, Females, Meanar n=3, read-out: AUCτ, md
  AUC: 4850 ng·h/mL
[4]; female, 12.1 mg/kg, Day 27, Composition 4 i.v. 12.1 mg/kg, Females, Meanar n=3, read-out: Cmax, md
  Cmax: 329 ng/mL
[4]; female, 12.1 mg/kg, Day 27, Composition 4 i.v. 12.1 mg/kg, Females, Meanar n=3, read-out: tmax, md
  Tmax: 2.67 h
[4]; female, 12.1 mg/kg
  AUC(0-t): 4850 ng·h/mL
[4]; male, 2.61 mg/kg, Day 1, Composition 4 i.v. 2.61 mg/kg, Males, Meanar n=3, read-out: Cmax, sd
  Cmax: 147 ng/mL
[4]; male, 2.61 mg/kg, Day 1, Composition 4 i.v. 2.61 mg/kg, Males, Meanar n=3, read-out: tmax, sd
  Tmax: 1.67 h
[4]; male, 2.61 mg/kg, Day 27, Composition 4 i.v. 2.61 mg/kg, Males, Meanar n=3
  half-life: 40.7 h
[4]; male, 2.61 mg/kg, Day 27, Composition 4 i.v. 2.61 mg/kg, Males, Meanar n=3, read-out: AUCτ, md
  AUC: 1740 ng·h/mL
[4]; male, 2.61 mg/kg, Day 27, Composition 4 i.v. 2.61 mg/kg, Males, Meanar n=3, read-out: Cmax, md
  Cmax: 224 ng/mL
[4]; male, 2.61 mg/kg, Day 27, Composition 4 i.v. 2.61 mg/kg, Males, Meanar n=3, read-out: tmax, md
  Tmax: 1.33 h
[4]; male, 2.61 mg/kg
  AUC(0-t): 1450 ng·h/mL
[4]; male, 5.62 mg/kg, Day 1, Composition 4 i.v. 5.62 mg/kg, Males, Meanar n=3
  half-life: 6.63 h
[4]; male, 5.62 mg/kg, Day 1, Composition 4 i.v. 5.62 mg/kg, Males, Meanar n=3, read-out: AUCsd
  AUC: 2470 ng·h/mL
[4]; male, 5.62 mg/kg, Day 1, Composition 4 i.v. 5.62 mg/kg, Males, Meanar n=3, read-out: AUCτ, sd
  AUC: 2590 ng·h/mL
[4]; male, 5.62 mg/kg, Day 1, Composition 4 i.v. 5.62 mg/kg, Males, Meanar n=3, read-out: Cmax, sd
  Cmax: 241 ng/mL
[4]; male, 5.62 mg/kg, Day 27, Composition 4 i.v. 5.62 mg/kg, Males, Meanar n=3, read-out: Cmax, md
  Cmax: 186 ng/mL
[4]; male, 5.62 mg/kg, Day 27, Composition 4 i.v. 5.62 mg/kg, Males, Meanar n=3, read-out: tmax, md
  Tmax: 2.33 h
[4]; male, 5.62 mg/kg, Day 27, Composition 4 i.v. 5.62 mg/kg, Males, marked ** (footnote not given)
  half-life: 5.1 h
[4]; male, 5.62 mg/kg
  AUC(0-t): 1320 ng·h/mL
[4]; male, 5.62 mg/kg, read-out: AUCτ, md
  AUC: 1850 ng·h/mL
[4]; male, 5.62 mg/kg, read-out: tmax, sd
  Tmax: 2 h
[4]; male, 12.1 mg/kg, Day 1, Composition 4 i.v. 12.1 mg/kg, Males, Meanar n=3
  half-life: 8.74 h
[4]; male, 12.1 mg/kg, Day 1, Composition 4 i.v. 12.1 mg/kg, Males, Meanar n=3, read-out: AUCsd
  AUC: 6980 ng·h/mL
[4]; male, 12.1 mg/kg, Day 1, Composition 4 i.v. 12.1 mg/kg, Males, Meanar n=3, read-out: AUCτ, sd
  AUC: 6870 ng·h/mL
[4]; male, 12.1 mg/kg, Day 1, Composition 4 i.v. 12.1 mg/kg, Males, Meanar n=3, read-out: Cmax, sd
  Cmax: 592 ng/mL
[4]; male, 12.1 mg/kg, Day 1, Composition 4 i.v. 12.1 mg/kg, Males, Meanar n=3, read-out: tmax, sd
  Tmax: 2.67 h
[4]; male, 12.1 mg/kg, Day 27, Composition 4 i.v. 12.1 mg/kg, Males, Meanar n=3
  half-life: 11.9 h
[4]; male, 12.1 mg/kg, Day 27, Composition 4 i.v. 12.1 mg/kg, Males, Meanar n=3, read-out: AUCτ, md
  AUC: 5620 ng·h/mL
[4]; male, 12.1 mg/kg, Day 27, Composition 4 i.v. 12.1 mg/kg, Males, Meanar n=3, read-out: Cmax, md
  Cmax: 435 ng/mL
[4]; male, 12.1 mg/kg, Day 27, Composition 4 i.v. 12.1 mg/kg, Males, Meanar n=3, read-out: tmax, md
  Tmax: 2.67 h
[4]; male, 12.1 mg/kg
  AUC(0-t): 5560 ng·h/mL
